Test results from the supplement of paper PMC4862054.

What was measured:
Details in all cases: 72 h
[1] = test system: MFM-223
Procedure: (§1)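 Drug sensitivity and resistance testing (DSRT) of breast cancer cell lines in 384-well plates, 5 concentrations in 10-fold dilutions over a compound-specific 10,000-fold range. After 72 h, cytotoxicity was read by CellTox Green fluorescence and viability by CellTiter-Glo luminescence (multiplexed), normalised to DMSO and benzethonium chloride controls. EC50 is the inflection point of the fitted dose-response curve (bottom asymptote free, so it can be relative for partial curves) and is censored at the highest tested concentration. Rows with DSS 0 (no meaningful response) were excluded.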

[2] = test system: HDQ-P1
Procedure: as §1

[3] = test system: HCC1599
Procedure: as §1

[4] = test system: HCC1937
Procedure: as §1

[5] = test system: CAL-148
Procedure: as §1

[6] = test system: CAL-51
Procedure: as §1

[7] = test system: MDA-MB-468
Procedure: as §1

[8] = test system: CAL-85-1
Procedure: as §1

[9] = test system: MDA-MB-231
Procedure: as §1

[10] = test system: DU-4475
Procedure: as §1

[11] = test system: CAL-120
Procedure: as §1

[12] = test system: Hs578T
Procedure: as §1

[13] = test system: MFM-223; remark: listed apart in the source
Method in brief: (§2)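 EC50 is the value from a fitted percent-inhibition dose-response curve, censored at the highest concentration, and rows with zero drug sensitivity score were not kept. The underlying assay seeded breast cancer cell lines in 20 µl onto 384-well plates pre-loaded with compound in 5 µl medium for 72 h. Viability was then read by CellTiter-Blue fluorescence at 560/590 nm after 2 h at 37 °C, with each plate normalised to vehicle and a positive kill control.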

[14] = test system: BT-549
Method in brief: as §2

[15] = test system: MDA-MB-468; remark: listed apart in the source
Method in brief: as §2

[16] = test system: BT-474
Method in brief: as §2

[17] = test system: SK-BR-3
Method in brief: as §2

[18] = test system: MDA-MB-436
Method in brief: as §2

[19] = test system: CAL-120; remark: listed apart in the source
Method in brief: as §2

[20] = test system: Hs578T; remark: listed apart in the source
Method in brief: as §2

[21] = test system: MFM-223; remark: listed apart in the source
Method in brief: (§3)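 Breast cancer cell lines in 20 µl suspension were added to 384-well plates already holding compound at 5 concentrations, spaced in 10-fold steps across a compound-specific 10,000-fold range, and incubated for 72 h. CellTox Green fluorescence (485/520 nm) was read first to measure cell death, followed by CellTiter-Glo luminescence for viability after 10 min at room temperature. Each plate was normalised to 0.1 % DMSO and a positive kill control. EC50 values came from dose-response curve fits and were censored at the top concentration.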

[22] = test system: HDQ-P1; remark: listed apart in the source
Method in brief: as §3

[23] = test system: BT-549; remark: listed apart in the source
Method in brief: as §3

[24] = test system: HCC1599; remark: listed apart in the source
Method in brief: as §3

[25] = test system: HCC1143
Method in brief: as §3

[26] = test system: HCC1937; remark: listed apart in the source
Method in brief: as §3

[27] = test system: CAL-148; remark: listed apart in the source
Method in brief: as §3

[28] = test system: CAL-51; remark: listed apart in the source
Method in brief: as §3

[29] = test system: MDA-MB-468; remark: listed apart in the source
Method in brief: as §3

[30] = test system: BT-474; remark: listed apart in the source
Method in brief: as §3

[31] = test system: CAL-85-1; remark: listed apart in the source
Method in brief: as §3

[32] = test system: SK-BR-3; remark: listed apart in the source
Method in brief: as §3

[33] = test system: MDA-MB-231; remark: listed apart in the source
Method in brief: as §3

[34] = test system: DU-4475; remark: listed apart in the source
Method in brief: as §3

[35] = test system: MDA-MB-436; remark: listed apart in the source
Method in brief: as §3

[36] = test system: CAL-120; remark: listed apart in the source
Method in brief: as §3

[37] = test system: Hs578T; remark: listed apart in the source
Method in brief: as §3

[38] = test system: MDA-MB-453
Method in brief: as §2

[39] = test system: HDQ-P1; remark: listed apart in the source
Method in brief: as §2

[40] = test system: CAL-148; remark: listed apart in the source
Method in brief: as §2

[41] = test system: CAL-51; remark: listed apart in the source
Method in brief: as §2

[42] = test system: CAL-85-1; remark: listed apart in the source
Method in brief: as §2

[43] = test system: DU-4475; remark: listed apart in the source
Method in brief: as §2

SMILES: COc1cc([C@@H]2c3cc4c(cc3[C@@H](O[C@@H]3O[C@@H]5CO[C@@H](c6cccs6)O[C@H]5[C@H](O)[C@H]3O)[C@H]3COC(=O)[C@H]23)OCO4)cc(OC)c1O [Teniposide]
- EC50, CellTox Green [1]: 0.835 µM
- EC50, CellTox Green [2]: 2.38 µM
- EC50, CellTox Green [3]: 0.35 µM
- EC50, CellTox Green [4]: 0.1 µM
- EC50, CellTox Green [5]: 0.0107 µM
- EC50, CellTox Green [6]: 0.879 µM
- EC50, CellTox Green [7]: 4.76 µM
- EC50, CellTox Green [8]: 2.39 µM
- EC50, CellTox Green [9]: 1.19 µM
- EC50, CellTox Green [10]: 1.62 µM
- EC50, CellTox Green [11]: 4.09 µM
- EC50, CellTox Green [12]: 4 µM
- EC50, CellTiter-Blue viability [13]: 1.85 µM
- EC50, CellTiter-Blue viability [14]: 1.51 µM
- EC50, CellTiter-Blue viability [15]: 1.08 µM
- EC50, CellTiter-Blue viability [16]: 5.94 µM
- EC50, CellTiter-Blue viability [17]: 0.0917 µM
- EC50, CellTiter-Blue viability [18]: 1.18 µM
- EC50, CellTiter-Blue viability [19]: 0.999 µM
- EC50, CellTiter-Blue viability [20]: 3.83 µM
- EC50, CellTiter-Glo [21]: 1.74 µM
- EC50, CellTiter-Glo [22]: 5.21 µM
- EC50, CellTiter-Glo [23]: 0.359 µM
- EC50, CellTiter-Glo [24]: 0.176 µM
- EC50, CellTiter-Glo [25]: 0.842 µM
- EC50, CellTiter-Glo [26]: 2.71 µM
- EC50, CellTiter-Glo [27]: 0.393 µM
- EC50, CellTiter-Glo [28]: 0.666 µM
- EC50, CellTiter-Glo [29]: 0.614 µM
- EC50, CellTiter-Glo [30]: 0.888 µM
- EC50, CellTiter-Glo [31]: 1.19 µM
- EC50, CellTiter-Glo [32]: 0.138 µM
- EC50, CellTiter-Glo [33]: 1.91 µM
- EC50, CellTiter-Glo [34]: 0.184 µM
- EC50, CellTiter-Glo [35]: 0.204 µM
- EC50, CellTiter-Glo [36]: 2.69 µM
- EC50, CellTiter-Glo [37]: 2.06 µM
- EC50, CellTiter-Blue viability [38]: 1.84 µM
- EC50, CellTiter-Blue viability [39]: 1.7 µM
- EC50, CellTiter-Blue viability [40]: 0.22 µM
- EC50, CellTiter-Blue viability [41]: 0.0758 µM
- EC50, CellTiter-Blue viability [42]: 1.45 µM
- EC50, CellTiter-Blue viability [43]: 0.0371 µM
